Experimental data: patent US20050112573A1, “Method of detecting toxic substance” (priority 2001, published 2005)

System: yeast genes (level of expressed mRNA)
Experiment: DNA chip analysis of expressed mRNA of yeast genes after 2 h culture with a toxic chemical substance
Type: cell-based, Saccharomyces cerevisiae S288C
Outline: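 S. cerevisiae S288C grown at 25° C in YPD; toxicant added at log phase at growth-inhibitory, non-lethal levels for 2 h, untreated cells as control. Poly(A) mRNA reverse-transcribed with Cy3/Cy5-dUTP, hybridized to whole-genome chip at 65° C >12 h; value is fluorescence ratio versus untreated.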

Substance: Na2As [(1)]
- The level of expressed mRNA in the presence of chemical substance/ (yeast gene YNL074C, ratio to control without chemical substance, 2 h culture): 0.9
- The level of expressed mRNA in the presence of chemical substance/ (yeast gene YNL092W, ratio to control without chemical substance, 2 h culture): 1.3
- The level of expressed mRNA in the presence of chemical substance/The level of expressed mRNA in the absence of chemical substance (yeast gene YNL093W): 2.1
- The level of expressed mRNA in the presence of chemical substance/ (yeast gene YNL115C, ratio to control without chemical substance, 2 h culture): 0.7
- The level of expressed mRNA in the presence of chemical substance/ (yeast gene YNL156C, ratio to control without chemical substance, 2 h culture): 1.1
- The level of expressed mRNA in the presence of chemical substance/ (yeast gene YNL234W, ratio to control without chemical substance, 2 h culture): 1.1
- The level of expressed mRNA in the presence of chemical substance/ (yeast gene YNL281W, ratio to control without chemical): 1.0
- The level of expressed mRNA in the presence of chemical substance/ (yeast gene YNL305C, ratio to control without chemical): 0.9
- The level of expressed mRNA in the presence of chemical substance/The level of expressed mRNA in the absence of chemical substance (yeast gene YNL333W): 1.0
- The level of expressed mRNA in the presence of chemical substance/The level of expressed mRNA in the absence of chemical substance (yeast gene YNR010W): 1.3
- The level of expressed mRNA in the presence of chemical substance/ (yeast gene YNR068C, ratio to control without chemical): 1.2
- The level of expressed mRNA in the presence of chemical substance/The level of expressed mRNA in the absence of chemical substance (yeast gene YNR069C): 1.5
- The level of expressed mRNA in the presence of chemical substance/in the absence of chemical substance (yeast gene YNR072W): 1.1
- The level of expressed mRNA in the presence of chemical substance/The level of expressed mRNA in the absence of chemical substance (yeast gene YOL013C): 0.9
- The level of expressed mRNA in the presence of chemical substance/ (yeast gene YOL032W, ratio to control without chemical): 1.3
- The level of expressed mRNA in the presence of chemical substance/ (yeast gene YOL036W, ratio to control without chemical): 0.8
- The level of expressed mRNA in the presence of chemical substance/ (yeast gene YOL047C, ratio to control without chemical): 1.4
- The level of expressed mRNA in the presence of chemical substance/ (yeast gene YOL071W, ratio to control without chemical): 1.3
- The level of expressed mRNA in the presence of chemical substance/ (yeast gene YOL082W, ratio to control without chemical): 1.0
- The level of expressed mRNA in the presence of chemical substance/ (yeast gene YOL083W, ratio to control without chemical): 1.1
- The level of expressed mRNA in the presence of chemical substance/in the absence of chemical substance (yeast gene YOL096C): 1.1
- The level of expressed mRNA in the presence of chemical substance/ (yeast gene YOL117W, ratio to control without chemical): 1.0
- The level of expressed mRNA in the presence of chemical substance/ (yeast gene YOL131W, ratio to control without chemical): 1.0
- The level of expressed mRNA in the presence of chemical substance/ (yeast gene YOL150C, ratio to control without chemical substance, 2 h culture): 4.1
- The level of expressed mRNA in the presence of chemical substance/ (yeast gene YOL162W, ratio to control without chemical): 2.0
- The level of expressed mRNA in the presence of chemical substance/The level of expressed mRNA in the absence of chemical substance (yeast gene YOL164W): 0.9
- The level of expressed mRNA in the presence of chemical substance/ (yeast gene YOR019W, ratio to control without chemical): 2.9
- The level of expressed mRNA in the presence of chemical substance/The level of expressed mRNA in the absence of chemical substance (yeast gene YOR036W): 1.8
- The level of expressed mRNA in the presence of chemical substance/The level of expressed mRNA in the absence of chemical substance (yeast gene YOR117W): 0.8
- The level of expressed mRNA in the presence of chemical substance/The level of expressed mRNA in the absence of chemical substance (yeast gene YOR124C): 0.6
- The level of expressed mRNA in the presence of chemical substance/The level of expressed mRNA in the absence of chemical substance (yeast gene YOR132W): 0.9
- The level of expressed mRNA in the presence of chemical substance/The level of expressed mRNA in the absence of chemical substance (yeast gene YOR157C): 1.0
- The level of expressed mRNA in the presence of chemical substance/in the absence of chemical substance (yeast gene YOR180C): 0.8
- The level of expressed mRNA in the presence of chemical substance/The level of expressed mRNA in the absence of chemical substance (yeast gene YOR181W): 1.0
- The level of expressed mRNA in the presence of chemical substance/The level of expressed mRNA in the absence of chemical substance (yeast gene YOR185C): 1.1
- The level of expressed mRNA in the presence of chemical substance/ (yeast gene YOR197W, ratio to control without chemical): 0.8
- The level of expressed mRNA in the presence of chemical substance/The level of expressed mRNA in the absence of chemical substance (yeast gene YOR198C): 1.0
- The level of expressed mRNA in the presence of chemical substance/The level of expressed mRNA in the absence of chemical substance (yeast gene YOR259C): 0.8
- The level of expressed mRNA in the presence of chemical substance/The level of expressed mRNA in the absence of chemical substance (yeast gene YOR261C): 1.0
- The level of expressed mRNA in the presence of chemical substance/The level of expressed mRNA in the absence of chemical substance (yeast gene YOR288C): 0.9
- The level of expressed mRNA in the presence of chemical substance/The level of expressed mRNA in the absence of chemical substance (yeast gene YOR355W): 0.7
- The level of expressed mRNA in the presence of chemical substance/in the absence of chemical substance (yeast gene YOR363C): 0.8
- The level of expressed mRNA in the presence of chemical substance/The level of expressed mRNA in the absence of chemical substance (yeast gene YOR383C): 0.9
- The level of expressed mRNA in the presence of chemical substance/ (yeast gene YPL087W, ratio to control without chemical): 1.0
- The level of expressed mRNA in the presence of chemical substance/The level of expressed mRNA in the absence of chemical substance (yeast gene YPL089C): 1.2
- The level of expressed mRNA in the presence of chemical substance/The level of expressed mRNA in the absence of chemical substance (yeast gene YPL109C): 1.1
- The level of expressed mRNA in the presence of chemical substance/The level of expressed mRNA in the absence of chemical substance (yeast gene YPL149W): 1.5
- The level of expressed mRNA in the presence of chemical substance/The level of expressed mRNA in the absence of chemical substance (yeast gene YPL154C): 0.7
- The level of expressed mRNA in the presence of chemical substance/ (yeast gene YPL196W, ratio to control without chemical): 1.3
- The level of expressed mRNA in the presence of chemical substance/ (yeast gene YPL206C, ratio to control without chemical): 1.0
- The level of expressed mRNA in the presence of chemical substance/ (yeast gene YPL222W, ratio to control without chemical): 0.9
- The level of expressed mRNA in the presence of chemical substance/ (yeast gene YPR023C, ratio to control without chemical): 1.2
- The level of expressed mRNA in the presence of chemical substance/The level of expressed mRNA in the absence of chemical substance (yeast gene YPR103W): 0.7
- The level of expressed mRNA in the presence of chemical substance/The level of expressed mRNA in the absence of chemical substance (yeast gene YPR108W): 0.8
- The level of expressed mRNA in the presence of chemical substance/ (yeast gene YPR151C, ratio to control without chemical): 2.3
- The level of expressed mRNA in the presence of chemical substance/in the absence of chemical substance (yeast gene YPR184W): 1.2
